How the values were obtained:
[1] = system: CNE1 (human nasopharyngeal carcinoma, cisplatin resistance); assay: MTT cytotoxicity, CNE1; format: cell-based; conditions: 72 h
Description: (§1) The cytotoxicities of the gold(III) compounds toward several human cancer cell lines including nasopharyngeal carcinoma (SUNE1, and its cisplatin variant CNE1), hepatocellular carcinoma (HepG2), and cervical epitheloid carcinoma (HeLa) were determined using a well-established MTT assay.

[2] = system: SUNE1 (human nasopharyngeal carcinoma, cisplatin sensitive); assay: MTT cytotoxicity, SUNE1; format: cell-based; conditions: 72 h
Description: as §1

[3] = system: HeLa (human cervical epithelioid carcinoma); assay: MTT cytotoxicity, HeLa; format: cell-based; conditions: 72 h
Description: as §1

[4] = system: HepG2 (human hepatocellular carcinoma); assay: MTT cytotoxicity, HepG2; format: cell-based; conditions: 72 h
Description: as §1

[5] = Cyclic voltammetry in DMF; format: physicochemical; conditions: comparison value
Source text: The electrochemical properties of the gold(III) compounds in DMF were studied by cyclic voltammetry. As compared to KAuCl4 [E°gold(III)→gold(I)=−0.4 V], the substantially more cathodic potentials of −1.43 to −1.83 V vs Cp2Fe^+/0 required for the gold(III) reduction in all the gold(III) compounds is consistent with stabilization of gold(III) by the dianionic CNC ligand.

SUNE1 cells = assay: Cell cycle analysis by flow cytometry (propidium iodide); format: cell-based, human; conditions: 24- or 48-h incubation
Description: To find out whether cellular DNA is a major target of the gold(III) compounds, we studied the cell cycle profiles of 3d-treated cancer cells. Cell cycle analysis was performed by assessing the DNA content of cells stained with propidium iodide using flow cytometry. This enables quantification of the total cellular populations in the different phases of the cell cycle (G0/G1, S and G2/M). […] Compound 3d appears to affect its cytotoxicity via some alternative mechanistic pathways.

[6] = Solution stability (UV-vis, NMR); format: physicochemical; conditions: 24 h
cancers = assay: Potency against cancers compared with cis-platin
[7] = system: several human cancer cell lines; assay: Cytotoxic activities against several cancer cell lines (MTT); format: cell-based
Description: as §1
A number of structurally distinct gold(III)-phosphino compounds (3a-g) were synthesized and assayed for cytotoxic activities against several cancer cell lines (see Table 1). […] Whereas, shortening (n=1 or 2) or lengthening (n=4, 5 or 6) the hydrocarbon linker reduced the cytotoxicity, with IC50 values increasing by at least an order of magnitude.

nude mice = assay: In vivo toxicity studies in nude mice
100-base pair DNA ladder = assay: Gel mobility shift assay (DNA intercalation); format: binding; conditions: 1.5% agarose gel, DNA 50 μM bp-1
Description: A gel mobility shift assay was employed to determine the intercalating property 3d [E. C. Long, J. K. Barton, Acc. Chem. Res. 1990, 23, 271] to evaluate the effect 3d, had upon the DNA binding affinities. A 100-base pair DNA ladder treated with 3d, or ethidium bromide (EB, DNA intercalator) as well as a control were resolved by agarose gel electrophoresis. Briefly, gel electrophoresis of 100-bp DNA ladder on a 1.5% (w/v) agarose gel was performed showing the mobility of DNA (50 μM bp-1) in the absence or presence of ethidium bromide (EB), or compound 3d. […] The bound DNA would have lower mobility compared to that of the free DNA.

Row | Compound | IC50 [1] [nM] | IC50 ratio (CNE1/SUNE1), resistance factor [1] | IC50 [2] [nM] | IC50 [3] [nM] | IC50 [4] [nM] | E° gold(III)→gold(I) [5] [V] | Effect on cell cycle (SUNE1 cells) | Stability on standing in DMSO or TBS (UV-vis, 31P, 1H NMR) [6] | potency against cancers relative to cis-platin (cancers) | Relative cytotoxicity among metal-free and metallated 1,2-bis(diphenylphosphino)Cn compounds [7] | toxicity to nude mice (nude mice; concentrations 20-fold higher than the effective dose) | DNA mutation upon usage (nude mice; mouse, in vivo) | DNA intercalation (tailing effect in gel) (100-base pair DNA ladder)
1 | c1ccc([P+](c2ccccc2)(c2ccccc2)[Au-]23[c]4ccccc4-c4cccc([n+]42)-c2cccc[c]23)cc1 [3a] | 11000 ± 2000 | 0.65 | 17000 ± 2000 |  |  |  |  |  |  |  |  |  | 
2 | O=S(=O)([O-])C(F)(F)F.O=S(=O)([O-])C(F)(F)F.c1ccc([P+](CCCC[P+](c2ccccc2)(c2ccccc2)[Au-]23[c]4ccccc4-c4cccc([n+]42)-c2cccc[c]23)(c2ccccc2)[Au-]23[c]4ccccc4-c4cccc([n+]42)-c2cccc[c]23)cc1 [3e, [Au2(CNC)2(μ-dppb)](CF3SO3)2] | 2200 ± 300 | 1.5 | 1500 ± 200 | 2400 ± 200 |  |  |  |  |  |  |  |  | 
3 | O=S(=O)([O-])C(F)(F)F.O=S(=O)([O-])C(F)(F)F.c1ccc([P+](CCCCC[P+](c2ccccc2)(c2ccccc2)[Au-]23[c]4ccccc4-c4cccc([n+]42)-c2cccc[c]23)(c2ccccc2)[Au-]23[c]4ccccc4-c4cccc([n+]42)-c2cccc[c]23)cc1 [3f, [Au2(CNC)2(μ-dpppe)](CF3SO3)2] | 2500 ± 300 | 1.6 | 1600 ± 300 | 1500 ± 300 |  |  |  |  |  |  |  |  | 
4 | O=S(=O)([O-])C(F)(F)F.O=S(=O)([O-])C(F)(F)F.c1ccc([P+](CCCCCC[P+](c2ccccc2)(c2ccccc2)[Au-]23[c]4ccccc4-c4cccc([n+]42)-c2cccc[c]23)(c2ccccc2)[Au-]23[c]4ccccc4-c4cccc([n+]42)-c2cccc[c]23)cc1 [3g, [Au2(CNC)2(μ-dpph)](CF3SO3)2] | 3200 ± 500 | 0.74 | 4300 ± 900 | 3200 ± 400 |  |  |  |  |  |  |  |  | 
5 | O=S(=O)([O-])C(F)(F)F.O=S(=O)([O-])C(F)(F)F.O=S(=O)([O-])C(F)(F)F.c1ccc([P+](CC[P+](c2ccccc2)(c2ccccc2)[Au-]23[c]4ccccc4-c4cccc([n+]42)-c2cccc[c]23)(CC[P+](c2ccccc2)(c2ccccc2)[Au-]23[c]4ccccc4-c4cccc([n+]42)-c2cccc[c]23)[Au-]23[c]4ccccc4-c4cccc([n+]42)-c2cccc[c]23)cc1 [3h, [Au3(CNC)3(μ-dpep)](CF3SO3)3] | 400 ± 50 | 1.5 | 260 ± 30 | 930 ± 90 | 3800 ± 600 |  |  |  |  |  |  |  | 
6 | [Cl][Au-]([Cl])([Cl])[Cl].[K+] [KAuCl4] |  |  |  |  |  | −0.4 |  |  |  |  |  |  | 
7 | [Cl-].[Cl][Pt-2]12[n+]3ccccc3-c3cccc([n+]31)-c1cccc[n+]12 [[Pt(terpy)Cl]Cl, reference compound] | 13000 ± 2000 | 1.2 | 11000 ± 3000 | 14000 ± 2000 | 23000 ± 3000 |  |  |  |  |  |  |  | 
8 | N.N.[Cl][Pt][Cl] [cisplatin, reference compound] | 3300 ± 500 | 3.3 | 1000 ± 100 | 11000 ± 1000 | 1600 ± 200 |  |  |  |  |  |  |  | 
9 | O=S(=O)([O-])C(F)(F)F.O=S(=O)([O-])C(F)(F)F.c1ccc([P+](CCC[P+](c2ccccc2)(c2ccccc2)[Au-]23[c]4ccccc4-c4cccc([n+]42)-c2cccc[c]23)(c2ccccc2)[Au-]23[c]4ccccc4-c4cccc([n+]42)-c2cccc[c]23)cc1 [compound 3d, [Au2(CNC)2(μ-dppp)](CF3SO3)2] | 91 | 1.7 | 55 | 43 | 210 ± 90 |  | did not significantly affect the cell cycle | no UV-vis, ^31P or ^1H NMR spectral changes | about 200 times | most cytotoxic | non-toxic | does not cause DNA mutation | does not bind to DNA by intercalation

— patent publication US7632827B2, “Anti-cancer phosphine containing [AuIIIm(CNC)mL]n+ complexes and derivatives thereof and methods for treating cancer using such compositions” (The University of Hong Kong, priority 2006, dated 2009)
